Measured values published in patent US6855728B2, “Small-molecule modulators of hepatocyte growth factor / scatter factor activities” (North Shore-Long Island Jewish Health System, priority 2001, dated 2005).

What was measured:
[1] = system: HGF/SF induced proliferation of HUVEC; test: Endothelial cell (HUVEC) proliferation assay in the presence of exogenously-added HGF/SF; assay type: cell-based, human; details: with HGF/SF; for Stimulation at 6-12 micrograms/ml With: stimulation of endothelial cell proliferation; for inhibition at 6 µg/mL / inhibition at 2 µg/mL / Activity at 6 microgram/ml With HGF/SF: inhibition (blocked SF): inhibition of HUVEC proliferation; for inhibition at 6 µg/mL: read-out: Activity at 6 microgram/ml With HGF/SF: inhibition (blocked SF); for Activity at 2 microgram/ml With HGF/SF (result in words) / inhibition at 2 µg/mL: 2 microgram/ml; for inhibition at 2 µg/mL: read-out: Activity at 2 microgram/ml With HGF/SF: inhibition (blocked SF)
From the text: To evaluate inhibitors of activity, compounds may be evaluated directly for anti-proliferative activities, such as the inhibition of cellular proliferation, inhibition of tumor growth, inhibition of scatter, and inhibition of gene expression, and may also be evaluated on their ability to inhibit activity when exposed to cells together with. In such instances, the scatter and/or proliferative activities induced by added will be inhibited by the attendant presence of an inhibitory compound of the invention.
(§1) Cell proliferation assays Endothelial cells (HUVECs) were seeded in 48 well plates at a density of 10,000 to 20,000 cells per well in the normal growth medium (EGM-2-Clonetics) containing 2% fetal bovine serum, FGF, VEGF, IGF, ascorbic acid, EGF, GA, heparin and hydrocortisone. The cells were grown normally in the growth medium for 24 hr at 37 degrees C. and 5% CO2. The cells were then rinsed with RPMI-1% BSA and starved for 1-2 hrs. The stock solutions of all the compounds were made at a concentration of 10 mg/ml in DMSO and diluted in RPMI-1% BSA at a final concentrations of 1 to 12 microgram/ml. The cells were then washed and treated with the compounds and incubated for another 24 hr at 37 degrees C. Then ^3H thymidine (0.5 microgram/ml in RPMI-BSA) was added to the cells and incubated at 37 degrees C. for 4 to 5 hours. The unincorporated thymidine was removed by washing the cells four times with 1× PBS. Then the cells were lysed with 0.5M NaOH for 30 min and the radioactivity counted in the beta counter.

[2] = system: Endothelial cells (HUVECs); test: Endothelial cell (HUVEC) proliferation assay, 3H thymidine incorporation, compound without added growth factor; assay type: cell-based, human; details: for Activity at 2 microgram/ml Without HGF/SF: stimulation: stimulation of HUVEC proliferation; for Activity at 6 microgram/ml Without HGF/SF (result in words) / inhibition at 6 µg/mL: 6 microgram/ml; for inhibition at 6 µg/mL: inhibition of HUVEC proliferation
Procedure: as §1, with “counter. […]” for “counter.”

[3] = 6-12 micrograms/ml, without HGF/SF
[4] = 6-12 micrograms/ml, without HGF/SF, stimulation of endothelial cell proliferation

SMILES	Activity at 2 microgram/ml With HGF/SF (result in words) [1]	inhibition at 6 µg/mL ([1]; Homo sapiens, 6 microgram/ml) [%]	Activity at 2 microgram/ml Without HGF/SF (result in words) ([2]; without HGF/SF)	Activity at 6 microgram/ml Without HGF/SF (result in words) ([2]; without HGF/SF)	also measured
CC(=O)C1=C(C)C[C@H]2[C@@H]3CC=C4C[C@@H](O)CC[C@]4(C)[C@H]3CC[C@]12C [16 methyl-16 Dehydropregnenolone]					Stimulation at 6-12 micrograms/ml With ([1]; 6-12 micrograms/ml): 30% stimulation; Stimulation/Inhibition at 6-12 micrograms/ml Without HGF/SF (result in words) [2, 3]: No effect
c1ccc(-c2sc(-c3ccccc3)c(-c3ccccc3)c2-c2ccccc2)cc1 [tetraphenylthiophene]					Stimulation/Inhibition at 6-12 micrograms/ml With (result in words) ([1]; 6-12 micrograms/ml): No effect; Inhibition at 6-12 micrograms/ml Without HGF/SF ([2]; 6-12 micrograms/ml, without HGF/SF, inhibition of endothelial cell proliferation): 50% inhibition
Cc1onc(-c2c(Cl)cccc2Cl)c1C(=O)NN(C)C [N′4,N′4,5-trimethyl-3-(2,6-dichlorophenyl)isoxazole-4-carbohydrazide]	No effect	40	No effect	No effect	
Cc1nn(C(=O)c2ccc(Cl)cc2)c(C)c1Cc1c(F)cccc1Cl [(4-(2-chloro-6-fluorobenzyl)-3,5-dimethyl-1H-pyrazol-1-yl)(4-chlorophenyl)methanone]		90			inhibition at 2 µg/mL ([1]; Homo sapiens): 30%; Activity at 2 microgram/ml Without HGF/SF: stimulation ([2]; without HGF/SF): 40%; activation at 5 µg/mL ([2]; Homo sapiens, HUVEC, 24 h, 5 microg/ml, stimulation of endothelial cell proliferation): 41%; activation at 10 µg/mL ([2]; Homo sapiens, HUVEC, 24 h, 10 microg/ml, stimulation of endothelial cell proliferation): 35%; inhibition at 6 µg/mL ([2]; Homo sapiens, without HGF/SF): 50%
Cc1onc(-c2c(Cl)cccc2Cl)c1C(=O)NNc1c(Cl)cccc1Cl [N′4,3-di(2,6-dichlorophenyl)-5-methylisoxazole-4-carbohydrazide]	not significant	60	No effect		inhibition at 6 µg/mL ([2]; Homo sapiens, without HGF/SF): 30%
Cc1cc(C)cc(Sc2ccc3nnc(-c4ccccc4)n3n2)c1 [6-(3,5-Dimethylphenyl) Thio)-3-Phenyl (1,2,4-Triazolo(4,3-b)pyridazine]					inhibition at 1 µg/mL ([1]; Homo sapiens, HUVEC, 1 ug/ml, inhibition of endothelial cell proliferation, read-out: Activity at 1 ug/ml concentration With HGF/SF: inhibition): 30%; Activity at 1 ug/ml concentration Without HGF/SF (result in words) ([2]; without HGF/SF): no significant effect
c1ccc(-c2cc(-c3ccccc3)cc(-c3ccccc3)c2)cc1 [1,3,5-triphenylbenzene]					Stimulation at 6-12 micrograms/ml With ([1]; 6-12 micrograms/ml): two fold stimulation; Stimulation at 6-12 micrograms/ml Without HGF/SF [2, 4]: 40-60% stimulation
Cc1onc(-c2c(Cl)cccc2Cl)c1C(=O)NNc1c(Cl)cc(Cl)cc1Cl [N′4-(2,4,6-trichlorophenyl)-3-3(2,6-dichlorophenyl)-5-methylisoxazole-4-carbohydrazide]	No effect		No effect	No effect	Activity at 6 microgram/ml With HGF/SF: inhibition (blocked SF) ([1]; 6 microgram/ml): 60%
Cc1nn(S(=O)(=O)c2ccc(Cl)cc2)c(C)c1Cc1c(Cl)cccc1Cl [1-((4-chlorophenyl)sulfonyl)-4-(2,6-dichlorobenzyl)-3,5-dimethyl-1H-pyrazol]	No effect	50	No effect	No effect	
C(=C1CCCc2c(-c3ccccc3)cc(-c3ccccc3)pc21)c1ccccc1 (stereo not shown) [8-Benzyledene-2,4 Diphenyl-5,6,7,8 Tetrahydrophosphinoline]					Activity at 1 ug/ml concentration With HGF/SF: inhibition ([1]; 1 ug/ml, inhibition of endothelial cell proliferation): 40% inhibition; Activity at 1 ug/ml concentration Without HGF/SF (result in words) ([2]; without HGF/SF): no significant effect
CC(C)(C)c1n[nH]c(C(C)(C)C)c1Cc1c(F)cccc1Cl [3,5-di(tert-butyl)-4-(2-chloro-6-fluorobenzyl)-1H-pyrazole]		50		No effect	inhibition at 2 µg/mL ([1]; Homo sapiens): 25%; Activity at 2 microgram/ml Without HGF/SF: stimulation ([2]; without HGF/SF): 51%
C(=C1c2ccccc2-c2ccccc2-c2ccccc21)c1ccc(-c2ccccc2)cc1 [9-biphenyl-4-ylmethylene-9H-tri-benzo(A,C,E)-cycloheptene]					Stimulation at 6-12 micrograms/ml With ([1]; 6-12 micrograms/ml): 20-30% stimulation; Stimulation at 6-12 micrograms/ml Without HGF/SF [2, 4]: 30-40% stimulation
Cc1onc(-c2c(Cl)cccc2Cl)c1C(=O)NNc1c(Cl)cncc1Cl [N′4-(3,5-dichloro-4-pyridyl)-3-(2,6-dichlorophenyl)-5-methylisoxazole-4-carbohydrazide]		25	No effect	No effect	inhibition at 2 µg/mL ([1]; Homo sapiens): 25%
CCOC(CC(=O)NNC(=O)c1c(-c2c(Cl)cccc2Cl)noc1C)OCC [N′4-(3,3-diethoxypropanoyl)-3-(2,6-dichlorophenyl)-5-methylisoxazole-4-carbohydrazide]	No effect	35	No effect	No effect	
Cc1onc(-c2c(Cl)cccc2Cl)c1C(=O)NN1CCCCCC1 [N4-azepan-1-yl-3-(2,6-dichlorophenyl)-5-methylisoxazole-4-carboxamide]	No effect	50	No effect		inhibition at 6 µg/mL ([2]; Homo sapiens, without HGF/SF): 50%
Cc1nn(CCC#N)c(C)c1Cc1c(Cl)cccc1Cl [3-(4-(2,6-dichlorobenzyl)-3,5-dimethyl-1H-pyrazol-1-yl)propanenitrile]		65	No effect		inhibition at 2 µg/mL ([1]; Homo sapiens): 36%; inhibition at 6 µg/mL ([2]; Homo sapiens, without HGF/SF): 34%
c1ccc2c(c1)cc(-c1cc3ccccc3c3ccccc13)c1ccccc12 [9,9-Biphenanthrene]					Inhibition at 6-12 micrograms/ml With ([1]; 6-12 micrograms/ml, inhibition of endothelial cell proliferation): 20-40% inhibition; Stimulation/Inhibition at 6-12 micrograms/ml Without HGF/SF (result in words) [2, 3]: No effect
C[Si](C)(C)c1cccc(-c2ccccc2)c1 [(3-Biphenyl) Trimethyl silane]					Stimulation/Inhibition at 6-12 micrograms/ml With (result in words) ([1]; 6-12 micrograms/ml): No effect; Stimulation at 6-12 micrograms/ml Without HGF/SF [2, 4]: 40% stimulation
Cc1nn(C)c(C)c1Cc1c(F)cccc1Cl [4-(2-chloro-6-fluorobenzyl)-1,3,5-trimethyl-1H-1-pyrazole]	No effect			No effect	Activity at 6 microgram/ml With HGF/SF: inhibition (blocked SF) ([1]; 6 microgram/ml): by 30%; Activity at 2 microgram/ml Without HGF/SF: stimulation ([2]; without HGF/SF): 50%
Cc1onc(-c2c(Cl)cccc2Cl)c1C(=O)NN(C)c1ccc([N+](=O)[O-])cn1 [N′4,5-dimethyl-N′4-(5-nitro-2-pyridyl)-3-(2,6-dichlorophenyl)isoxazole-4-carbohydrazide]	No effect	43	No effect	No effect	
Cc1nn(-c2onc(-c3c(Cl)cccc3Cl)c2C(=O)NN)c(C)c1Br [(4-bromo-3,5-dimethyl-1H-pyrazol-1-yl)(3-(2,6-dichlorophenyl)isoxazole-4-carbohydrazide)]	No effect				Activity at 6 microgram/ml With HGF/SF (result in words) ([1]; 6 microgram/ml): No effect; Activity at 2 microgram/ml Without HGF/SF: stimulation ([2]; without HGF/SF): 74%
CSC(=NS(=O)(=O)c1ccccc1)NNC(=O)c1c(-c2c(Cl)cccc2Cl)noc1C [N1-((2-((3-(2,6-dichlorophenyl)-5-methylisoxazol-4-yl)carbonyl)hydrazino)(methylthio)methylidene)benzene-1-sulfonamide]	No effect	25	No effect	No effect	
